Each structure is given as a SMILES string.

This data set can be described thus: Evaluation of metabolic stability in human liver microsomes. It counts as in vitro ADME. As to conditions: for half-life at 1 μM: in vitro t1/2, 0.5 mg/mL human liver microsomes, 1 μM test compound, 2 mM NADPH, pH 7.4, 37° C., 0-30 minutes, average of two experiments, read-out: Half-life (t1/2) (min) ± SD; for Increase over Silodosin (%): increase of HLM half-life relative to silodosin. As for the experimental part: Evaluation of Metabolic Stability in Human Liver Microsomes. Human liver microsomes (“HLM”; 20 mg/mL) were obtained from Xenotech, LLC (Lenexa, Kans.). β-nicotinamide adenine dinucleotide phosphate, reduced form (NADPH), magnesium chloride (MgCl2), and dimethyl sulfoxide (DMSO) were purchased from Sigma-Aldrich.
Stock solutions of Compounds 108, 110, 111 and silodosin (7.5 mM) were separately prepared in DMSO. The 7.5 mM stock solutions were diluted to 50 μM in acetonitrile (ACN). The 20 mg/mL human liver microsomes were diluted to 0.625 mg/mL in 0.1 M potassium phosphate buffer, pH 7.4, containing 3 mM MgCl2. The diluted microsomes (375 μL) were added to wells of a 96-well deep-well polypropylene plate in triplicate. Ten μL of the 50 μM test compound solution was added to the microsomes and the mixture was pre-warmed for 10 minutes. Reactions were initiated by addition of 125 μL, of pre-warmed NADPH solution (8 mM NADPH in 0.1M potassium phosphate buffer, pH 7.4, containing 3 mM MgCl2). The final reaction volume was 0.5 mL and contains 0.5 mg/mL human liver microsomes, 1 μM test compound, and 2 mM NADPH in 0.1 M potassium phosphate buffer, pH 7.4, and 3 mM MgCl2. The reaction mixtures were incubated at 37° C., and 50 μL aliquots were removed at 0, 5, 10, 20, and 30 minutes and added to shallow-well 96-well plates which contain 50 μL of ice-cold ACN with internal standard to stop the reactions. The plates were stored at 4° C. for 20 minutes after which 100 μL of water was added to the wells of the plate before centrifugation to pellet precipitated proteins. Supernatants were transferred to another 96-well plate and analyzed for amounts of parent remaining by LC-MS/MS using an Applied Bio-systems API 4000 mass spectrometer.
The in vitro t1/2s for test compounds were calculated from the slopes of the linear regression of % parent remaining (ln) vs incubation time relationship. in vitro t1/2=0.693/k, where k=−[slope of linear regression of % parent remaining(ln) vs incubation time]. The experiment was performed twice. Data analysis was performed using Microsoft Excel Software.

Take `[2H]C([2H])(O)C([2H])([2H])C([2H])([2H])N1CCc2cc(C[C@@H](C)NC([2H])([2H])C([2H])([2H])Oc3ccccc3OC([2H])([2H])C(F)(F)F)cc(C(N)=O)c21` [Compound 108, (R)-1-(3-Hydroxy-(1,1,2,2,3,3-d6)-propyl)-5-(2-(2-(2-(2,2,2-trifluoro-1,1-d2-ethoxy)phenoxy)-(1,1,2,2-d4)-ethylamino)propyl)indoline-7-carboxamide]: the half-life at 1 μM was 44 ± 1.2 min and the “Increase over Silodosin (%)” value turned out to be 21%.

Turning to `[2H]C([2H])(N[C@H](C)Cc1cc2c(c(C(N)=O)c1)N(CCCO)CC2)C([2H])([2H])Oc1ccccc1OC([2H])([2H])C(F)(F)F` [Compound 110, (R)-1-(3-hydroxypropyl)-5-(2-(2-(2-(2,2,2-d2-trifluoroethoxy)phenoxy)-d4-ethylamino)propyl)indoline-7-carboxamide], the half-life at 1 μM amounted to 43 ± 10 min and the “Increase over Silodosin (%)” value stood at 17%.

Take `[2H]C([2H])(O)C([2H])([2H])C([2H])([2H])N1CCc2cc(C[C@@H](C)NCCOc3ccccc3OCC(F)(F)F)cc(C(N)=O)c21` [Compound 111, (R)-1-(3-Hydroxy-(1,1,2,2,3,3-d6)-propyl)-5-(2-(2-(2-(2,2,2-trifluoroethoxy)-phenoxy)ethylamino)propyl)indoline-7-carboxamide]: the half-life at 1 μM is 32 ± 0.1 min and the “Increase over Silodosin (%)” value was found to be 0%. `C[C@H](Cc1cc2c(c(C(N)=O)c1)N(CCCO)CC2)NCCOc1ccccc1OCC(F)(F)F` [Silodosin, (R)-1-(3-hydroxypropyl)-5-(2-(2-(2-(2,2,2-trifluoroethoxy)phenoxy)ethylamino)-propyl)indoline-7-carboxamide, reference compound]: the half-life at 1 μM was 37 ± 0.1 min.

The values are drawn from US20100076010A1, “ALPHA 1A-ADRENOCEPTOR ANTAGONISTS” (CONCERT Pharmaceuticals, Inc., priority 2007, published 2010).
